Results on 1 compound are retold here after publication PMC3763546, “Structural insight into negative DNA supercoiling by DNA gyrase, a bacterial type 2A DNA topoisomerase” (Nucleic Acids Research, 2013).

The target of this test is T1, GyrBA-fus (full-length T. thermophilus DNA gyrase GyrB-GyrA fusion) (Thermus thermophilus, UniProt Q5SHZ4+Q5SIL4).
T1 construct: full-length GyrB fused at its C-terminus to the N-terminus of full-length GyrA by a G-D-L linker; N-terminal His10 tag with PreScission site; E. coli BL21(DE3); dimer (A2B2 equivalent) of 320377 Da
The experiment in a line: native ESI mass spectrometry. The test is classed as binding. The conditions noted are these: 200 mM ammonium acetate pH 7.5; two ADPNP per fusion dimer; ATPase domain (GyrB) site; also in the holoenzyme cryo-EM sample (16.9 Å).

On to `Nc1ncnc2c1ncn2[C@@H]1O[C@H](COP(=O)(O)OP(=O)(O)NP(=O)(O)O)[C@@H](O)[C@H]1O` [ADPNP], for which the “native ESI mass spectrometry” value is recorded as “showing the addition of two ADPNP molecules per GyrBA-fus dimer”.
